From patent US20240350443A1, “COMPOSITION, FORMULATION, PREPARATION METHOD AND USE FOR GLUTATHIONE PRECURSOR” (priority 2021, published 2024) come the findings set out here.

Marks after values point to notes of the source that are not given here.

What all share (type): in vivo, Kunming mice
The subject of experiment [1] is mouse peritoneal macrophages. The experiment can be described thus: Phagocytosis of chicken erythrocytes by mouse peritoneal macrophages. The note with it: x ± s, n = 10. The text has this:
(§1) In the experiment, the effect of the composition on the immune system of mice was researched from four aspects of cellular immune function, humoral immune function, monocyte-macrophage function and NK cell activity.
(§2) Test animals were as follows: male SPF-grade Kunming mice aged 4 weeks, with body weights of 18-22 g, available from Hubei Provincial Laboratory Animal Public Service Center, Hubei, China [certification No.: SCXK (E) 2020-0018].
(§3) The experimental method was as follows: 400 mice were randomly divided into 5 groups, with 80 mice in each group, and each group was subjected to 5 kinds of immunoassays including body weight and organ/body ratio measurement, cellular immune function measurement, humoral immune function measurement, monocyte-macrophage function measurement, and NK cell activity measurement. For each immunoassay, 80 mice were tested and divided into 8 groups, namely a negative control group and experimental groups 1-7, with 10 mice in each group; distilled water was given to the negative control group, corresponding test substances (the dose of acetylcysteine or cysteine agent in each test substance was 500 mg/kg BW) were given to each experimental group, and the intragastric capacity was 20 mL/kg BW.

The next experiment relates to aged mice. The experiment can be described thus: Oxidation resistance function experiment in aged mice. The note with it: x ± s, n = 13. The source says:
In the experiment, the oxidation resistance effect of the composition was researched by detecting four indicators of MDA, protein carbonyl, antioxidant enzyme activity (GSH-PX or SOD) and reduced GSH content. If three of the four indicators were positive, the composition could be determined to have the oxidation resistance effect.
Test animals were as follows: male SPF-grade Kunming mice aged over 10 months, with body weights of 40-60 g, available from Hubei Provincial Laboratory Animal Public Service Center, Hubei, China [certification No.: SCXK (E) 2020-0018].
The experimental method was as follows: 104 mice were randomly divided into 8 groups, namely, a negative control group and experimental groups 1-7 (i.e., the formula of the test samples adopted the formula of the above experimental groups 1-7), with 13 mice in each group.
Distilled water was given to the blank control group, corresponding test substances (the dose of acetylcysteine or cysteine agent in each test substance was 500 mg/kg BW) were given to each experimental group, and the intragastric capacity was 20 mL/kg BW. After 30 days of continuous intragastric administration, blood was sampled from the inner canthus of each group of animals, a hemolysate was prepared, and the MDA content and the glutathione peroxidase (GSH-PX) activity were detected; the animals were sacrificed and the livers were taken as homogenates, 10% liver homogenates were prepared for reduced GSH and protein carbonyl determination, and 1% liver homogenates were prepared for superoxide dismutase (SOD) activity determination. Each detection kit was available from NanJing JianCheng Bioengineering Institute.

For another experiment, the system named is humoral immune function. The experiment can be described thus: Humoral immune function: antibody-producing cells and serum hemolysin level. The note with it: mice; 500 mg/kg BW intragastric; x ± s, n = 10.
From the text: as §1, §2, §3

In experiment [2] the test system is alcoholic liver damage. The experiment can be described thus: Liver protection function experiment: MDA, reduced GSH and TG in liver homogenates. The text has this:
In the experiment, the auxiliary protection effect of the composition of the present disclosure on alcoholic liver damage was researched by detecting three indicators of liver malondialdehyde (MDA) content, reduced glutathione (GSH) and triglyceride (TG) and histopathologic examination (wherein the lower the MDA and TG contents were, the higher the GSH content was, the better the liver protection effect was). If the three indicators of the liver MDA, the reduced GSH and the TG were positive, or any two of the three indicators of the liver MDA, the reduced GSH and the TG were positive and the histopathological examination result was positive, the composition could be determined to have the auxiliary protection effect on alcoholic liver damage.
Test animals were as follows: male SPF-grade Kunming mice aged 5 to 6 weeks, with body weights of 18-22 g, available from Hubei Provincial Laboratory Animal Public Service Center, Hubei, China [certification No.: SCXK (E) 2020-0018].
The experimental method was as follows: 117 mice were randomly divided into 9 groups, namely a blank control group, a model control group and experimental groups 1-7 (the formula of the test samples was referred to the formula of the experimental groups 1-7), with 13 mice in each group.
Distilled water was given to the blank control group and the model control group, corresponding test substances (the dose of acetylcysteine or cysteine agent in each test substance was 500 mg/kg BW) were given to each experimental group according to the formula, and the intragastric capacity was 20 mL/kg BW. On day 30 of the experiment, the mice of the model control group and each experimental group were intragastrically administered with 14 mL/kg BW of 50% ethanol once, and distilled water with equal volume was given to the blank control group, and then the mice were fasted for 16 hours. The mice were sacrificed by cervical dislocation after weighing.
0.5 g of liver was taken and added with normal saline to prepare a liver homogenate, and then the MDA, reduced GSH and TG were detected. The detection method and the calculation method for the MDA and reduced GSH were described according to the instruction of a kit from NanJing JianCheng Bioengineering Institute, and the TG was detected by using the Beckman Coulter AU680 Chemistry Analyzer.

Another experiment relates to immune system of mice. The experiment can be described thus: Immunity enhancement function, overall determination. The note with it: any two of four aspects positive.
Experiment [3] has as its system alcoholic liver damage. The experiment can be described thus: Liver protection function experiment: liver histopathology score (lipid droplets). The note with it: alcoholic liver damage mice; score 0-4 points per field; x ± s, 13 mice.
Experimental: Distilled water was given to the blank control group and the model control group, corresponding test substances (the dose of acetylcysteine or cysteine agent in each test substance was 500 mg/kg BW) were given to each experimental group according to the formula, and the intragastric capacity was 20 mL/kg BW. On day 30 of the experiment, the mice of the model control group and each experimental group were intragastrically administered with 14 mL/kg BW of 50% ethanol once, and distilled water with equal volume was given to the blank control group, and then the mice were fasted for 16 hours. The mice were sacrificed by cervical dislocation after weighing. […]
The areas of the fields of view occupied by various lesions in each field of view were respectively recorded, and the total lesion scores of the observed fields of view were accumulated. […]
Setting [4] is: 10% liver homogenates of aged mice, 30 days.
Setting [5] is: alcoholic liver damage mice, 500 mg/kg BW acetylcysteine or cysteine intragastric, 30 days, x ± s, 13 mice.

On to `CC(=O)N[C@@H](CS)C(=O)O` [Experimental group 1, N-acetylcysteine], for which the “Phagocytic rate, phagocytosis of chicken erythrocytes” value in experiment [1] is 33.88 ± 2.48^b %. In addition, the SOD in the experiment on aged mice (1% liver homogenates of aged mice, 30 days) is 338.4 ± 44.9^bc U/mgprot. In addition, the MDA in the experiment on aged mice (2% hemolysates of aged mice, 500 mg/kg BW intragastric 30 days) is given as 17.88 ± 2.55^bc nmol/ml. In the experiment on aged mice (setting [4]), the GSH was 30.05 ± 6.08^a mg/gprot and the Protein carbonyl is recorded as 1.33 ± 0.35^ab nmol/mgprot. The GSH-PX in the experiment on aged mice (hemolysate of aged mice, 30 days) was 585.2 ± 24.2^a U/ml. The “Number of hemolytic plaques (N)/number of whole splenocytes” value in the experiment on humoral immune function is on record as 161.71 ± 11.52^c. In addition, the “Auxiliary protection effect on alcoholic liver damage (determination)” value in the experiment on alcoholic liver damage [2] (Technical Specification for Inspection and Evaluation of Health Food (2003 edition)) was “had an auxiliary protection effect on alcoholic liver damage”. Further, in the experiment with alcoholic liver damage [2] (setting [5]), the “MDA in liver homogenates” value is given as 0.98 ± 0.28^bc nmol/mgprot, the “Reduced GSH in liver homogenates” value is listed as 34.55 ± 9.48^bc mg/gprot and the “TG in liver homogenates” value was 1.52 ± 0.64^bc mmol/L. Also, in the experiment on immune system of mice, the “Immunity enhancement effect (determination)” value is “had the immunity enhancement effect”. Also, in the experiment on alcoholic liver damage [3], the “Liver histopathology score (fatty degeneration of hepatocytes)” value was 1.46 ± 1.05^bc.
